Patent publication US20110263552A1, “MODULATION OF SIDE EFFECT PROFILE OF 5-ALPHA REDUCTASE INHIBITOR THERAPY” (SOV Therapeutics, priority 2009, published 2011)
Marks after values point to notes of the source that are not given here.

Legend:
[1] = oral 200 mg twice daily, cited from earlier work
[2] = test system: absorption of cholesterol; conditions: ingestion of 1 g; meal containing 500 mg of cholesterol; cited from earlier work
Male Sprague-Dawley rats = experiment: Organ weights in rats after 14 days of dosing (Example 9); type: in vivo
From the text: The organ weights obtained from Bramson et al. are given in the right-hand column of the table for reference (Bramson, H. N., Journal of Pharmacology and Experimental Therapeutics, 1496-1502, (1997).)

[3] = Testosterone undecanoate (TU) solubility in various solubilizers
[4] = male Sprague-Dawley rats, 80 mg/kg/day TU, without or with 1 mg/kg/day D

In the case of `C[C@]12CC[C@H]3[C@@H](CCC4=CC(=O)CC[C@@]43C)[C@@H]1CC[C@@H]2O` [micronized testosterone, testosterone], the “time at desired level of serum testosterone for each peak” value ([1]; Daggett et al.) is given as “about 4 hours” and the “time of total serum testosterone within the normal range” value ([1]; Føgh et al.) is given as “greater than 12 hours”.

In the case of `CC[C@H](CC[C@@H](C)[C@H]1CC[C@H]2[C@@H]3CC=C4C[C@@H](O)CC[C@]4(C)[C@H]3CC[C@]12C)C(C)C` [β-sitosterol], the “reduction of absorption of cholesterol” value [2] is given as 42%.

With `CCCCCCCCCCC(=O)O[C@H]1CC[C@H]2[C@@H]3CCC4=CC(=O)CC[C@]4(C)[C@H]3CC[C@]12C` [TU, testosterone undecanoate] the “Body weight, Mean” value (Male Sprague-Dawley rats; [4]) was 284 g, the “Seminal vesicles weight, Mean” value (Male Sprague-Dawley rats; [4]) was 0.902 grams and the “Testicles weight, Mean” value (Male Sprague-Dawley rats; [4]) was 3.374 grams. For the same molecule, the “Ventral prostate weight, Mean” value (Male Sprague-Dawley rats; [4]) was 0.22 grams, the “Difference in organ weight versus vehicle-only” value (Male Sprague-Dawley rats; rats, any organ measured) was “No significant differences in weight” and the “TU Solubility” value ([3]; vehicle Acconon CO-7, at 37 C.) was 59 mg/g. For the same molecule, the “TU Solubility” value ([3]; vehicle Canola oil, at 37 C.) was 167 mg/g, the “TU Solubility” value ([3]; vehicle Capmul MCM, determined at 25° C.) was >100* mg/g and the “TU Solubility” value ([3]; vehicle Capmul PG-8, determined at 25° C.) was >100* mg/g. The “TU Solubility” value ([3]; vehicle Caprylic acid, at 37 C.) was 595 mg/g, the “TU Solubility” value ([3]; vehicle Castor oil, at 37 C.) was 218 mg/g and the “TU Solubility” value ([3]; vehicle Corn oil, at 37 C.) was 243 mg/g. The “TU Solubility” value ([3]; vehicle Cremophor RH40, determined at 25° C.) was 88* mg/g, the “TU Solubility” value ([3]; vehicle Crodamol EO (ethyl oleate), at 37 C.) was 221 mg/g and the “TU Solubility” value ([3]; vehicle Crodamol IPM (isopropyl myristate), at 37 C.) was 295 mg/g. For the same molecule, the “TU Solubility” value ([3]; vehicle Crodamol IPP (isopropyl palmitate), at 37 C.) was 215 mg/g, the “TU Solubility” value ([3]; vehicle Ethyl linoleate, at 37 C.) was 230 mg/g and the “TU Solubility” value ([3]; vehicle Glyceryl monooleate or GMO (Peceol (Gattefosse)), at 37 C.) was 323 mg/g. For the same molecule, the “TU Solubility” value ([3]; vehicle Glyceryl ricinoleate (Softigen 701), at 37 C.) was 261 mg/g, the “TU Solubility” value ([3]; vehicle Glyceryl trioleate (Capmul GTO), at 37 C.) was 154 mg/g and the “TU Solubility” value ([3]; vehicle Incromega E7010 (omega-3), at 37 C.) was 247 mg/g. The “TU Solubility” value ([3]; vehicle Incromega TG7010 SR (omega-3 high purity), at 37 C.) was 225 mg/g, the “TU Solubility” value ([3]; vehicle Labrafil M 2125 CS, at 37 C.) was 257 mg/g and the “TU Solubility” value ([3]; vehicle Labrasol, determined at 25° C.) was 43* mg/g. For the same molecule, the “TU Solubility” value ([3]; vehicle Linoleic acid, at 37 C.) was 391 mg/g, the “TU Solubility” value ([3]; vehicle Linolenic acid, at 37 C.) was 162 mg/g and the “TU Solubility” value ([3]; vehicle Maisine 35-1, at 37 C.) was 93 mg/g. The “TU Solubility” value ([3]; vehicle Miglyol 812, determined at 25° C.) was >100* mg/g, the “TU Solubility” value ([3]; vehicle N-methyl pyrolidone, at 37 C.) was >500 mg/g and the “TU Solubility” value ([3]; vehicle Oleic acid, at 37 C.) was 405 mg/g. The “TU Solubility” value ([3]; vehicle Omega-3 ethyl esters w/antioxidant (AMRI), at 37 C.) was 261 mg/g, the “TU Solubility” value ([3]; vehicle Omega-3 ethyl esters w/o antioxidant (AMRI), at 37 C.) was 360 mg/g and the “TU Solubility” value ([3]; vehicle Polyglyceryl-3-diisostearate (Plurol diisosterique), at 37 C.) was 173 mg/g. The “TU Solubility” value ([3]; vehicle Polyglyceryl-3-dioleate (Plurol oleique CC497), at 37 C.) was 193 mg/g, the “TU Solubility” value ([3]; vehicle Polyglyceryl-6-dioleate (Caprol MPGO, Abitec), at 37 C.) was 184 mg/g and the “TU Solubility” value ([3]; vehicle Polysorbate 80 (Tween 80), determined at 25° C.) was 39* mg/g. The “TU Solubility” value ([3]; vehicle Polysorbate 85, at 37 C.) was 125 mg/g, the “TU Solubility” value ([3]; vehicle Propylene glycol monocaprylate (Capryol 90, Gattefosse), at 37 C.) was 486 mg/g and the “TU Solubility” value ([3]; vehicle Propylene glycol monolaurate, determined at 25° C.) was >200* mg/g. The “TU Solubility” value ([3]; vehicle Rapeseed oil, at 37 C.) was 123 mg/g, the “TU Solubility” value ([3]; vehicle Ricinoleic acid, at 37 C.) was 244 mg/g and the “TU Solubility” value ([3]; vehicle Safflower oil, at 37 C.) was 124 mg/g. The “TU Solubility” value ([3]; vehicle Span 80, at 37 C.) was 289 mg/g, the “TU Solubility” value ([3]; vehicle Sunflower oil, at 37 C.) was 105 mg/g and the “TU Solubility” value ([3]; vehicle Transcutol HP, at 37 C.) was 180 mg/g. For the same molecule, the “TU Solubility” value ([3]; vehicle dl-alpha-tocopherol, at 37 C.) was 527 mg/g.
